{
  "source": "paper PMC3728333",
  "about": "“Development of an Epidermal Growth Factor Derivative with EGFR Blocking Activity” (PLoS ONE, 2013)",
  "key": {"EGFR [1]": {"system": "EGFR", "conditions": "ref [30]; cited from earlier work", "from_the_text": "The binding of EGF through the three interaction sites of EGFR shifts the equilibrium between the two distinct EGFR conformations to the untethered one, enabling the dimerization arm in domain II to interact with an identical dimerization arm of another receptor to form the dimer, [14]."}, "EGFR [2]": {"system": "EGFR", "conditions": "ref [11], [12], cited from earlier work", "from_the_text": "(§1) Our group has previously described that the Potato Carboxypeptidase Inhibitor (PCI) is an antagonist of human EGF. PCI is a 39-residue protein folded into a 27-residue globular core stabilized by three disulfide bonds that adopts the same conformation as EGF, the T-Knot scaffold. This similar structure probably accounts for the antagonistic activity."}, "human cancer cell lines": {"system": "human cancer cell lines", "conditions": "several human cancer cell lines; ref [11], [12]; cited from earlier work", "from_the_text": "as §1"}, "EGFR [3]": {"system": "EGFR", "conditions": "ref [39], [40]; cited from earlier work", "from_the_text": "It is known that activated EGFR traffics from the plasma membrane to the cytoplasm through endocytic vesicles. Then, internalized EGFR can be eventually degraded in lysosomes, or recycled to the plasma membrane. Moreover, several reports have identified additional intracellular destinations for the internalized receptor, including ..."}, "MCF-7 cells": {"system": "MCF-7 cells", "test": "Cell proliferation (MTT), MCF-7", "format": "cell-based, human", "conditions": "MCF-7, 20 and 150 nM, 72 h (3 days), medium without FBS, vs untreated", "description": "(§2) The optimal cell seeding concentration was previously established for both cell types, as described in the supporting information (Fig S1), in order to maintain the cells in an exponential growth phase along the experiment. The cells were allowed to attach and grow for 72 h in culture medium, then the cells were washed and medium without FBS was added to the cells for 24 h. […] The treatments were removed, and the cells were washed with PBS and incubated for 3 h with 100 μl of fresh culture medium together with 10 μl of MTT (3-(4,5-dimethylthiazol-2-yl)-2,5-diphenyltetrazolium bromide) (Sigma-Aldrich, St. Louis, MO, USA). Medium was discarded and dimethyl sulfoxide (DMSO) (Sigma-Aldrich, St. Louis, MO, USA) was added to each well to dissolve the purple formazan crystals. Plates were agitated at room temperature for 10 min and the absorbance of each well was determined with an absorbance microplate reader (ELx800, BioTek, Winooski, VT, USA) at a wavelength of 570 nm. Three replicates were used for each treatment. The cell viability was determined as a percentage of the untreated control cells, by dividing the mean absorbance of each treatment by the mean absorbance of the untreated cells."}, "Caco-2 cells": {"system": "Caco-2 cells", "test": "Cell proliferation (MTT), Caco-2", "format": "cell-based, human", "conditions": "Caco-2, any concentration tested (10, 20 and 150 nM), 96 h (4 days), medium without FBS, vs untreated", "description": "as §2"}},
  "data": [
    {"molecule": "Cc1ccc(C(=O)Nc2ccc(S(=O)(=O)O)c3cc(S(=O)(=O)O)cc(S(=O)(=O)O)c23)cc1NC(=O)c1cccc(NC(=O)Nc2cccc(C(=O)Nc3cc(C(=O)Nc4ccc(S(=O)(=O)O)c5cc(S(=O)(=O)O)cc(S(=O)(=O)O)c45)ccc3C)c2)c1", "note": "[suramin]", "values": [
      {"measurement": "interference with hEGF-EGFR interaction", "setting": "EGFR [1]", "value": "prevents hEGF from interacting with EGFR at site 3"}
    ]},
    {"molecule": "Potato Carboxypeptidase Inhibitor (QQHADPICNKPCKTHDDCSGAWFCQACWNSARTCGPYVG; UniProt P01075 1-39, looked up) [PCI, 39-residue protein folded into a 27-residue globular core stabilized by three disulfide bonds]", "values": [
      {"measurement": "affinity for EGFR (in words)", "setting": "EGFR [2]; earlier work", "value": "very low"},
      {"measurement": "EGFR activation", "setting": "EGFR [2]", "value": "inhibited EGFR activation"},
      {"measurement": "EGFR down regulation", "setting": "EGFR [2]", "value": "induced the down regulation of the receptor"},
      {"measurement": "competition with EGF for binding to EGFR", "setting": "EGFR [2]", "value": "competed with EGF for binding to EGFR"},
      {"measurement": "effective concentration compared to EGFt/hEGF (in words)", "setting": "EGFR [2]", "value": "one order of magnitude higher (μM)"},
      {"measurement": "anti-proliferative activity in vitro", "setting": "human cancer cell lines", "value": "showed anti-proliferative activity in vitro in several human cancer cell lines"}
    ]},
    {"molecule": "TGF-α: EGFR native ligand", "values": [
      {"measurement": "stability of binding to EGFR at pH of endosomes", "setting": "EGFR [3]", "value": "rapidly dissociates from the receptor when exposed to the low pH of endosomes"}
    ]},
    {"molecule": "human Epidermal Growth Factor [hEGF]", "values": [
      {"measurement": "cell proliferation (in words)", "setting": "MCF-7 cells", "value": "proliferative effect"},
      {"measurement": "cell proliferation (in words)", "setting": "Caco-2 cells", "value": "moderated but significant proliferative effect"},
      {"measurement": "stability of binding to EGFR at pH of endosomes", "setting": "EGFR [3]", "value": "relatively more stable at the pH of endosomes"}
    ]}
  ]
}
